Results from US20230157952A1, “METHOD FOR IMPROVING THE STABILITY OF A PHARMACEUTICAL COMPOSITION COMPRISING A HIGH PENETRATION DRUG, AND THE PHARMACEUTICAL COMPOSITION OBTAINED THEREFROM” (Techfields Inc., priority 2020, published 2023).

Assay: Effect of concentration on the stability of the solution (purity over time)
Details: 25° C.

CCN(CC)CCOC(=O)CCCc1ccc(N(CCCl)CCCl)cc1.Cl
Purity (%) at Day 3 (0.01 wt % in water): 83.1%
Purity (%) at Day 7 (0.01 wt % in water): 72.9%
Purity (%) at hr 0 (0.01 wt % in water): 97.8%
Purity(%) at Day 14 (0.01 wt % in water): 56.9%
Purity(%) at Day 21 (0.01 wt % in water): 43.2%
Purity(%) at Day 28 (0.01 wt % in water): 34.3%
Purity (%) at Day 3 (0.1 wt % in water): 94.1%
Purity (%) at Day 7 (0.1 wt % in water): 89.6%
Purity (%) at hr 0 (0.1 wt % in water): 97.9%
Purity(%) at Day 14 (0.1 wt % in water): 81.5%
Purity(%) at Day 21 (0.1 wt % in water): 73.7%
Purity(%) at Day 28 (0.1 wt % in water): 62.5%
Purity (%) at Day 3 (1 wt % in water): 95.1%
Purity (%) at Day 7 (1 wt % in water): 91.9%
Purity (%) at hr 0 (1 wt % in water): 98.2%
Purity(%) at Day 14 (1 wt % in water): 85.9%
Purity(%) at Day 21 (1 wt % in water): 81.9%
Purity(%) at Day 28 (1 wt % in water): 76.9%
Purity (%) at Day 3 (3 wt % in water): 96.2%
Purity (%) at Day 7 (3 wt % in water): 95.0%
Purity (%) at hr 0 (3 wt % in water): 98.4%
Purity(%) at Day 14 (3 wt % in water): 91.0%
Purity(%) at Day 21 (3 wt % in water): 87.3%
Purity(%) at Day 28 (3 wt % in water): 83.7%
Purity (%) at Day 3 (5 wt % in water): 98.2%
Purity (%) at Day 7 (5 wt % in water): 97.8%
Purity (%) at hr 0 (5 wt % in water): 98.5%
Purity(%) at Day 14 (5 wt % in water): 97.0%
Purity(%) at Day 21 (5 wt % in water): 96.3%
Purity(%) at Day 28 (5 wt % in water): 95.0%
Purity (%) at Day 3 (7 wt % in water): 98.4%
Purity (%) at Day 7 (7 wt % in water): 98.2%
Purity (%) at hr 0 (7 wt % in water): 98.5%
Purity(%) at Day 14 (7 wt % in water): 98.0%
Purity(%) at Day 21 (7 wt % in water): 97.6%
Purity(%) at Day 28 (7 wt % in water): 97.4%
Purity (%) at Day 3 (8 wt % in water): 98. %
Purity (%) at Day 7 (8 wt % in water): 98.3%
Purity (%) at hr 0 (8 wt % in water): 98.5%
Purity(%) at Day 14 (8 wt % in water): 97.9%
Purity(%) at Day 21 (8 wt % in water): 97.7%
Purity(%) at Day 28 (8 wt % in water): 97.3%
Purity (%) at Day 3 (10 wt % in water): 98.5%
Purity (%) at Day 7 (10 wt % in water): 98.3%
Purity (%) at hr 0 (10 wt % in water): 98.6%
Purity(%) at Day 14 (10 wt % in water): 98.2%
Purity(%) at Day 21 (10 wt % in water): 97.7%
Purity(%) at Day 28 (10 wt % in water): 97.4%
Purity (%) at Day 3 (15 wt % in water): 98.5%
Purity (%) at Day 7 (15 wt % in water): 98.4%
Purity (%) at hr 0 (15 wt % in water): 98.6%
Purity(%) at Day 14 (15 wt % in water): 98.1%
Purity(%) at Day 21 (15 wt % in water): 97.7%
Purity(%) at Day 28 (15 wt % in water): 97.3%
Purity (%) at Day 3 (20 wt % in water): 98.4%
Purity (%) at Day 7 (20 wt % in water): 98.3%
Purity (%) at hr 0 (20 wt % in water): 98.6%
Purity(%) at Day 14 (20 wt % in water): 98.2%
Purity(%) at Day 21 (20 wt % in water): 97.8%
Purity(%) at Day 28 (20 wt % in water): 97.3%
Purity (%) at Day 3 (30 wt % in water): 98.4%
Purity (%) at Day 7 (30 wt % in water): 98.4%
Purity (%) at hr 0 (30 wt % in water): 98.5%
Purity(%) at Day 14 (30 wt % in water): 98.3%
Purity(%) at Day 21 (30 wt % in water): 97.7%
Purity(%) at Day 28 (30 wt % in water): 97.4%
Purity (%) at Day 3 (50 wt % in water): 98.4%
Purity (%) at Day 7 (50 wt % in water): 98.3%
Purity (%) at hr 0 (50 wt % in water): 98.6%
Purity(%) at Day 14 (50 wt % in water): 98.2%
Purity(%) at Day 21 (50 wt % in water): 97.8%
Purity(%) at Day 28 (50 wt % in water): 97.4%

CCN(CC)CCOC(=O)CCCc1ccc(N(CCS(C)(=O)=O)CCS(C)(=O)=O)cc1.Cl
Purity (%) at Day 3 (0.01 wt % in water): 83.4%
Purity (%) at Day 7 (0.01 wt % in water): 73.2%
Purity (%) at hr 0 (0.01 wt % in water): 97.6%
Purity(%) at Day 14 (0.01 wt % in water): 55.2%
Purity(%) at Day 21 (0.01 wt % in water): 43.1%
Purity(%) at Day 28 (0.01 wt % in water): 32.0%
Purity (%) at Day 3 (0.1 wt % in water): 93.7%
Purity (%) at Day 7 (0.1 wt % in water): 88.3%
Purity (%) at hr 0 (0.1 wt % in water): 97.7%
Purity(%) at Day 14 (0.1 wt % in water): 80.6%
Purity(%) at Day 21 (0.1 wt % in water): 71.5%
Purity(%) at Day 28 (0.1 wt % in water): 60.7%
Purity (%) at Day 3 (1 wt % in water): 95.1%
Purity (%) at Day 7 (1 wt % in water): 90.8%
Purity (%) at hr 0 (1 wt % in water): 98.0%
Purity(%) at Day 14 (1 wt % in water): 85.1%
Purity(%) at Day 21 (1 wt % in water): 80.3%
Purity(%) at Day 28 (1 wt % in water): 73.8%
Purity (%) at Day 3 (3 wt % in water): 96.0%
Purity (%) at Day 7 (3 wt % in water): 94.3%
Purity (%) at hr 0 (3 wt % in water): 98.1%
Purity(%) at Day 14 (3 wt % in water): 89.7%
Purity(%) at Day 21 (3 wt % in water): 84.8%
Purity(%) at Day 28 (3 wt % in water): 80.6%
Purity (%) at Day 3 (5 wt % in water): 97.8%
Purity (%) at Day 7 (5 wt % in water): 97.2%
Purity (%) at hr 0 (5 wt % in water): 98.2%
Purity(%) at Day 14 (5 wt % in water): 95.3%
Purity(%) at Day 21 (5 wt % in water): 93.0%
Purity(%) at Day 28 (5 wt % in water): 90.3%
Purity (%) at Day 3 (7 wt % in water): 98.3%
Purity (%) at Day 7 (7 wt % in water): 98.1%
Purity (%) at hr 0 (7 wt % in water): 98.4%
Purity(%) at Day 14 (7 wt % in water): 98.0%
Purity(%) at Day 21 (7 wt % in water): 97.5%
Purity(%) at Day 28 (7 wt % in water): 97.0%
Purity (%) at Day 3 (8 wt % in water): 98.2%
Purity (%) at Day 7 (8 wt % in water): 98.2%
Purity (%) at hr 0 (8 wt % in water): 98.3%
Purity(%) at Day 14 (8 wt % in water): 98.1%
Purity(%) at Day 21 (8 wt % in water): 97.6%
Purity(%) at Day 28 (8 wt % in water): 97.0%
Purity (%) at Day 3 (10 wt % in water): 98.3%
Purity (%) at Day 7 (10 wt % in water): 98.3%
Purity (%) at hr 0 (10 wt % in water): 98.4%
Purity(%) at Day 14 (10 wt % in water): 98.0%
Purity(%) at Day 21 (10 wt % in water): 97.5%
Purity(%) at Day 28 (10 wt % in water): 97.1%
Purity (%) at Day 3 (15 wt % in water): 98.4%
Purity (%) at Day 7 (15 wt % in water): 98.2%
Purity (%) at hr 0 (15 wt % in water): 98.4%
Purity(%) at Day 14 (15 wt % in water): 98.1%
Purity(%) at Day 21 (15 wt % in water): 97.7%
Purity(%) at Day 28 (15 wt % in water): 97.2%
Purity (%) at Day 3 (20 wt % in water): 98.4%
Purity (%) at Day 7 (20 wt % in water): 98.3%
Purity (%) at hr 0 (20 wt % in water): 98.4%
Purity(%) at Day 14 (20 wt % in water): 98.2%
Purity(%) at Day 21 (20 wt % in water): 97.6%
Purity(%) at Day 28 (20 wt % in water): 97.2%
Purity (%) at Day 3 (30 wt % in water): 98.4%
Purity (%) at Day 7 (30 wt % in water): 98.2%
Purity (%) at hr 0 (30 wt % in water): 98.5%
Purity(%) at Day 14 (30 wt % in water): 98.1%
Purity(%) at Day 21 (30 wt % in water): 97.8%
Purity(%) at Day 28 (30 wt % in water): 97.3%
Purity (%) at Day 3 (50 wt % in water): 98.3%
Purity (%) at Day 7 (50 wt % in water): 98.2%
Purity (%) at hr 0 (50 wt % in water): 98.4%
Purity(%) at Day 14 (50 wt % in water): 98.2%
Purity(%) at Day 21 (50 wt % in water): 97.7%
Purity(%) at Day 28 (50 wt % in water): 97.3%
